Experimental data reported in patent publication US20260363243A1 (priority 2022, published 2026).
Like-named read-outs stand apart in the source and are kept apart here.

Key:
cucumber downy mildew [1] = test: Activity in vivo for inhibiting cucumber downy mildew (potting method, greenhouse); details: for efficacy compared with OXA / efficacy compared with dimethomorph and cyazofamid / efficacy compared with oxathiapiprolin / bactericidal activity: in words
Excerpt: The test and investigation method refers to a SOP-SC-1098 cucumber downy mildew potting method in the fungicide section of Standard operation Specification for testing biological Activity of pesticides written by Kang Zhuo and Gu Baogen.

[2] = system: Cucumber downy mildew (Pseudoperonospora cubensis); test: Field efficacy test for controlling cucumber downy mildew
Description: The test was carried out according to the Guidelines for the Field Efficacy Trials of Pesticides (Part 1): Fungicides Against Downy Mildew of Cucumber (GB/T17980.26-2000). The test site was a mature vegetable base of Hushu in Nanjing, Jiangsu Province. Cucumber downy mildew (Pseudoperonospora cubensis) was used as the target, oxathiapiprolin and Yin Fali were used as control agents. The test crops was cucumber and the variety was ‘Green Core’. The plots were arranged in a randomized block design, with each plot approximately 8 m^2 and each treatment replicated three times. The whole stem and leaf spray was employed, the test was carried out at the early stage of cucumber downy mildew occurrence, and the agents were applied twice consecutively, with the second application 5 days after the first one. The investigation method was to take one investigation point for every row of cucumbers in each treatment district, assess the severity of downy mildew of all leaves of all cucumber plants, and calculate the disease index and the prevention effect.

Phytophthora sojae = test: In vitro inhibition of hypha growth of oomycete pathogens (microplate, OD595): Phytophthora sojae; type: cell-based; details: for inhibitory activity compared with OXA: 5, 0.5 and 0.05 mg/L, in words; for inhibition at 0.005 µg/mL / inhibition at 0.05 µg/mL / inhibition at 0.5 µg/mL / inhibition at 5 µg/mL: read-out: inhibitory activity on hypha growth
Phytophthora infestans = test: microbe, parasite or virus in culture; type: cell-based; details: for inhibitory activity compared with OXA: 5, 0.5 and 0.05 mg/L, in words; for inhibition at 0.005 µg/mL / inhibition at 0.05 µg/mL / inhibition at 0.5 µg/mL / inhibition at 5 µg/mL: read-out: inhibitory activity on hypha growth
Phytophthora nicotianae = test: In vitro inhibition of hypha growth of oomycete pathogens (microplate, OD595): Phytophthora nicotianae; type: cell-based; details: for inhibition at 0.005 µg/mL / inhibition at 0.05 µg/mL / inhibition at 0.5 µg/mL / inhibition at 5 µg/mL: Phytophthora nicotianae, read-out: inhibitory activity on hypha growth; for inhibitory activity compared with OXA: Pythium nicotianae, 5, 0.5 and 0.05 mg/L, in words
Phytophthora capsici = test: In vitro inhibition of hypha growth of oomycete pathogens (microplate, OD595): Phytophthora capsici; type: cell-based; details: for inhibitory activity compared with OXA: 5, 0.5 and 0.05 mg/L, in words; for inhibition at 0.005 µg/mL / inhibition at 0.05 µg/mL / inhibition at 0.5 µg/mL / inhibition at 5 µg/mL: read-out: inhibitory activity on hypha growth
cucumber downy mildew [3] = details: Table 3, data from Li, J. L. et al. 2020, cited from earlier work
[4] = 0.005 mg/L, re-screening, Table 2
[5] = 0.02 mg/L, re-screening, Table 2
[6] = 0.078 mg/L, re-screening, Table 2
[7] = 0.312 mg/L, re-screening, Table 2
[8] = 1.25 mg/L, re-screening, Table 2
[9] = after the first pesticide application, 50 mg/L
[10] = after the second pesticide application, 50 mg/L

Compound: CCOC(CC(=O)N1CCC(c2nc(C3=NOC(c4c(F)cccc4F)C3)cs2)CC1)OC (centres unmarked) [II-3]
- efficacy compared with OXA (cucumber downy mildew [1]; 0.005 mg/L): comparable to that of the control agent OXA
- Control effect (cucumber downy mildew [1]; [4]): A (90%≤A≤100%)
- Control effect (cucumber downy mildew [1]; [5]): A (90%≤A≤100%)
- efficacy compared with dimethomorph and cyazofamid (cucumber downy mildew [1]; 0.078 mg/L): superior to that of dimethomorph and cyazofamid
- efficacy compared with oxathiapiprolin (cucumber downy mildew [1]; 0.078 mg/L): equivalent to that of oxathiapiprolin at the same concentration
- Control effect (cucumber downy mildew [1]; 0.078 mg/L, re-screening): ≥ 90%
- Control effect (cucumber downy mildew [1]; [6]): A (90%≤A≤100%)
- Control effect (cucumber downy mildew [1]; [7]): A (90%≤A≤100%)
- Control effect (cucumber downy mildew [1]; 0.625 mg/L, Table 3): A (90% ≤ A ≤ 100%)
- Control effect (cucumber downy mildew [1]; 1.25 mg/L, Table 1): A (90%≤A≤100%)
- Control effect (cucumber downy mildew [1]; [8]): A (90%≤A≤100%)
- Control effect (cucumber downy mildew [1]; 2.5 mg/L, Table 3): A (90% ≤ A ≤ 100%)
- Control effect (cucumber downy mildew [1]; 5 mg/L, Table 1): A (90%≤A≤100%)
- Control effect (cucumber downy mildew [1]; 10 mg/L, Table 3): A (90% ≤ A ≤ 100%)
- Control effect (cucumber downy mildew [1]; 20 mg/L, Table 1): A (90%≤A≤100%)
- bactericidal activity (cucumber downy mildew [1]; re-screening): excellent bactericidal activity
- control effect compared with OXA and Yinfali ([2]; 50 mg/L, in words): better than that of the control agents OXA and Yinfali
- Average control effect [2, 9]: 66.63%
- Average disease index [2, 9]: 2.80
- Average control effect [2, 10]: 79.72%
- Average disease index [2, 10]: 6.93
- effect in controlling cucumber downy mildew in the field ([2]; in words): good effect in controlling cucumber downy mildew, it can effectively protect new leaves and can effectively inhibit the spread of disease spots on the infected leaves
- inhibitory activity compared with OXA (Phytophthora sojae): comparable to that of the control agent OXA
- inhibition at 0.005 µg/mL (Phytophthora sojae): 75 to 90%
- inhibition at 0.05 µg/mL (Phytophthora sojae): 90 to 100%
- inhibition at 0.5 µg/mL (Phytophthora sojae): 90 to 100%
- inhibition at 5 µg/mL (Phytophthora sojae): 90 to 100%
- inhibitory activity compared with OXA (Phytophthora infestans): comparable to that of the control agent OXA
- inhibition at 0.005 µg/mL (Phytophthora infestans): 75 to 90%
- inhibition at 0.05 µg/mL (Phytophthora infestans): 90 to 100%
- inhibition at 0.5 µg/mL (Phytophthora infestans): 90 to 100%
- inhibition at 5 µg/mL (Phytophthora infestans): 90 to 100%
- inhibition at 0.005 µg/mL (Phytophthora nicotianae): 90 to 100%
- inhibition at 0.05 µg/mL (Phytophthora nicotianae): 90 to 100%
- inhibition at 0.5 µg/mL (Phytophthora nicotianae): 90 to 100%
- inhibition at 5 µg/mL (Phytophthora nicotianae): 90 to 100%
- inhibitory activity compared with OXA (Phytophthora nicotianae): comparable to that of the control agent OXA
- inhibitory activity compared with OXA (Phytophthora capsici): comparable to that of the control agent OXA
- inhibition at 0.005 µg/mL (Phytophthora capsici): 90 to 100%
- inhibition at 0.05 µg/mL (Phytophthora capsici): 90 to 100%
- inhibition at 0.5 µg/mL (Phytophthora capsici): 90 to 100%
- inhibition at 5 µg/mL (Phytophthora capsici): 90 to 100%

Compound: COC(CC(=O)N1CCC(c2nc(C3=NOC(c4c(F)cccc4F)C3)cs2)CC1)OCC(F)(F)F (centres unmarked) [II-18]
- efficacy compared with OXA (cucumber downy mildew [1]; 0.005 mg/L): comparable to that of the control agent OXA
- Control effect (cucumber downy mildew [1]; [4]): A (90%≤A≤100%)
- Control effect (cucumber downy mildew [1]; [5]): A (90%≤A≤100%)
- efficacy compared with dimethomorph and cyazofamid (cucumber downy mildew [1]; 0.078 mg/L): superior to that of dimethomorph and cyazofamid
- efficacy compared with oxathiapiprolin (cucumber downy mildew [1]; 0.078 mg/L): equivalent to that of oxathiapiprolin at the same concentration
- Control effect (cucumber downy mildew [1]; 0.078 mg/L, re-screening): ≥ 90%
- Control effect (cucumber downy mildew [1]; [6]): A (90%≤A≤100%)
- Control effect (cucumber downy mildew [1]; [7]): A (90%≤A≤100%)
- Control effect (cucumber downy mildew [1]; 0.625 mg/L, Table 3): A (90% ≤ A ≤ 100%)
- Control effect (cucumber downy mildew [1]; 1.25 mg/L, Table 1): A (90%≤A≤100%)
- Control effect (cucumber downy mildew [1]; [8]): A (90%≤A≤100%)
- Control effect (cucumber downy mildew [1]; 2.5 mg/L, Table 3): A (90% ≤ A ≤ 100%)
- Control effect (cucumber downy mildew [1]; 5 mg/L, Table 1): A (90%≤A≤100%)
- Control effect (cucumber downy mildew [1]; 10 mg/L, Table 3): A (90% ≤ A ≤ 100%)
- Control effect (cucumber downy mildew [1]; 20 mg/L, Table 1): A (90%≤A≤100%)
- bactericidal activity (cucumber downy mildew [1]; re-screening): excellent bactericidal activity
- inhibitory activity compared with OXA (Phytophthora sojae): comparable to that of the control agent OXA
- inhibition at 0.005 µg/mL (Phytophthora sojae): 90 to 100%
- inhibition at 0.05 µg/mL (Phytophthora sojae): 90 to 100%
- inhibition at 0.5 µg/mL (Phytophthora sojae): 90 to 100%
- inhibition at 5 µg/mL (Phytophthora sojae): 90 to 100%
- inhibitory activity compared with OXA (Phytophthora infestans): comparable to that of the control agent OXA
- inhibition at 0.005 µg/mL (Phytophthora infestans): 90 to 100%
- inhibition at 0.05 µg/mL (Phytophthora infestans): 90 to 100%
- inhibition at 0.5 µg/mL (Phytophthora infestans): 90 to 100%
- inhibition at 5 µg/mL (Phytophthora infestans): 90 to 100%
- inhibition at 0.005 µg/mL (Phytophthora nicotianae): 75 to 90%
- inhibition at 0.05 µg/mL (Phytophthora nicotianae): 90 to 100%
- inhibition at 0.5 µg/mL (Phytophthora nicotianae): 90 to 100%
- inhibition at 5 µg/mL (Phytophthora nicotianae): 90 to 100%
- inhibitory activity compared with OXA (Phytophthora nicotianae): comparable to that of the control agent OXA
- inhibitory activity compared with OXA (Phytophthora capsici): comparable to that of the control agent OXA
- inhibition at 0.005 µg/mL (Phytophthora capsici): 90 to 100%
- inhibition at 0.05 µg/mL (Phytophthora capsici): 90 to 100%
- inhibition at 0.5 µg/mL (Phytophthora capsici): 90 to 100%
- inhibition at 5 µg/mL (Phytophthora capsici): 90 to 100%

Compound: O=C(CC1OCCCO1)N1CCC(c2nc(C3=NOC(c4c(F)cccc4F)C3)cs2)CC1 (centres unmarked) [II-21]
- Control effect (cucumber downy mildew [1]; 1.25 mg/L, Table 1): D (45%≤D<60%)
- Control effect (cucumber downy mildew [1]; 5 mg/L, Table 1): B (75%≤B<90%)
- Control effect (cucumber downy mildew [1]; 20 mg/L, Table 1): A (90%≤A≤100%)

Compound: O=C(CC1OCCO1)N1CCC(c2nc(C3=NOC(c4c(F)cccc4F)C3)cs2)CC1 (centres unmarked) [II-22]
- Control effect (cucumber downy mildew [1]; 5 mg/L, Table 1): D (45%≤D<60%)
- Control effect (cucumber downy mildew [1]; 20 mg/L, Table 1): A (90%≤A≤100%)

Compound: O=C(CC1OCCCCO1)N1CCC(c2nc(C3=NOC(c4c(F)cccc4F)C3)cs2)CC1 (centres unmarked) [II-28]
- Control effect (cucumber downy mildew [1]; 5 mg/L, Table 1): C (60%≤C<75%)
- Control effect (cucumber downy mildew [1]; 20 mg/L, Table 1): C (60%≤C<75%)

Compound: Cc1cc(C(F)(F)F)nn1CC(=O)N1CCC(c2nc(C3=NOC(c4c(F)cccc4F)C3)cs2)CC1 (centres unmarked) [OXA, oxathiapiprolin, reference compound]
- Control effect (cucumber downy mildew [1]; [4]): A (90%≤A≤100%)
- Control effect (cucumber downy mildew [1]; [5]): A (90%≤A≤100%)
- Control effect (cucumber downy mildew [1]; [6]): A (90%≤A≤100%)
- Control effect (cucumber downy mildew [1]; [7]): A (90%≤A≤100%)
- Control effect (cucumber downy mildew [1]; 0.625 mg/L, Table 3): A (90% ≤ A ≤ 100%)
- Control effect (cucumber downy mildew [1]; [8]): A (90%≤A≤100%)
- Control effect (cucumber downy mildew [1]; 2.5 mg/L, Table 3): A (90% ≤ A ≤ 100%)
- Control effect (cucumber downy mildew [1]; 10 mg/L, Table 3): A (90% ≤ A ≤ 100%)
- Average control effect [2, 9]: 36.02%
- Average disease index [2, 9]: 5.36
- Average control effect [2, 10]: 74.87%
- Average disease index [2, 10]: 8.59
- inhibition at 0.005 µg/mL (Phytophthora sojae): 90 to 100%
- inhibition at 0.05 µg/mL (Phytophthora sojae): 90 to 100%
- inhibition at 0.5 µg/mL (Phytophthora sojae): 90 to 100%
- inhibition at 5 µg/mL (Phytophthora sojae): 90 to 100%
- inhibition at 0.005 µg/mL (Phytophthora infestans): 90 to 100%
- inhibition at 0.05 µg/mL (Phytophthora infestans): 90 to 100%
- inhibition at 0.5 µg/mL (Phytophthora infestans): 90 to 100%
- inhibition at 5 µg/mL (Phytophthora infestans): 90 to 100%
- inhibition at 0.005 µg/mL (Phytophthora nicotianae): 90 to 100%
- inhibition at 0.05 µg/mL (Phytophthora nicotianae): 90 to 100%
- inhibition at 0.5 µg/mL (Phytophthora nicotianae): 90 to 100%
- inhibition at 5 µg/mL (Phytophthora nicotianae): 90 to 100%
- inhibition at 0.005 µg/mL (Phytophthora capsici): 90 to 100%
- inhibition at 0.05 µg/mL (Phytophthora capsici): 90 to 100%
- inhibition at 0.5 µg/mL (Phytophthora capsici): 90 to 100%
- inhibition at 5 µg/mL (Phytophthora capsici): 90 to 100%

Compound: CC(C)CCC(=O)N1CCC(c2nc(C3=NOC(c4c(F)cccc4F)C3)cs2)CC1 (centres unmarked) [comparative 1]
- Control effect (cucumber downy mildew [3]; 0.625 mg/L): E (0% ≤ E < 45%)
- Control effect (cucumber downy mildew [3]; 2.5 mg/L): B (75% ≤ B < 90%)
- Control effect (cucumber downy mildew [3]; 10 mg/L): B (75% ≤ B < 90%)
